From patent US4511509A, “3-Alkylidine azetidine compound and their production” (Kowa Co. Ltd., priority 1982, dated 1985)
In brackets after ≈: the same amount, converted by molar mass.

Experiments:
Assay in all cases: antibacterial activity, MIC (Table)
Format in all cases: cell-based
[1] = system: Streptococcus aureus 209p JC-1
[2] = system: Streptococcus aureus Smith
[3] = system: Bacillus subtilis ATCC 6633; details: ATCC6633
[4] = system: Escherichia coli NIHJ JC-2; details: NIHJJC2
[5] = system: Klebsiella pneumoniae PCO 602; details: PCO602
Serratia marcescens NHL = system: Serratia marcescens NHL
Proteus inconstans 93 = details: Providencia alcalifaciens
Proteus vulgaris IID874 = system: Proteus vulgaris IID874
Salmonella typhi H - 901 = details: Salmonella enterica
[6] = system: Pseudomonas aeruginosa NCTC 10490; details: NCTC10490
[7] = system: Pseudomonas putida IID 5121; details: IID5121
[8] = system: Escherichia coli RECl (PC ase I)
[9] = system: Escherichia coli 59 (PC ase II)
[10] = system: Escherichia coli 68 (PC ase IV)
Proteus inconstans 113 = details: Providencia alcalifaciens

C/C(CO)=C1\C(=O)N2C(C(=O)O)=C(Sc3ncccn3)C[C@H]12 [(5R)6(E)-(1-methyl-2-hydroxyethylidene)-3-(2-pyrimidinylthio)-1-azabicyclo[3.2.0]hept-2-en-7-one-2-carboxylic acid] showed an MIC [1] of 0.05 µg/mL (≈ 0.157 µM), an MIC [2] of 0.2 µg/mL (≈ 0.626 µM) and an MIC [3] of 0.78 µg/mL (≈ 2.44 µM). The MIC [4] was 0.39 µg/mL (≈ 1.22 µM), the MIC [5] was 0.39 µg/mL (≈ 1.22 µM) and the MIC (Serratia marcescens NHL) was 0.78 µg/mL (≈ 2.44 µM). For the same molecule, the MIC (Proteus inconstans 93) was 0.2 µg/mL (≈ 0.626 µM), the MIC (Proteus vulgaris IID874) was 0.05 µg/mL (≈ 0.157 µM) and the MIC (Salmonella typhi H - 901) was 0.2 µg/mL (≈ 0.626 µM). It also gave an MIC [6] of 1.56 µg/mL (≈ 4.89 µM), an MIC [7] of 100 µg/mL (≈ 313 µM) and an MIC [8] of 0.39 µg/mL (≈ 1.22 µM). The MIC [9] was 0.2 µg/mL (≈ 0.626 µM), the MIC [10] was 0.2 µg/mL (≈ 0.626 µM) and the MIC (Proteus inconstans 113) was 0.78 µg/mL (≈ 2.44 µM).
